Values quoted from earlier work in patent US9562052B2, “Bicyclicpyridine derivatives” (Hoffmann-La Roche Inc., priority 2012, dated 2017).

CCc1c(-c2ccccc2)c(-c2ccccc2)nn1-c1ccccc1-c1cccc(OCC(=O)O)c1 [BMS309403]
body weight and energy consumption (ob/ob mice): no change | hepatic steatosis (ob/ob mice): reduction | glucose uptake in muscle and adipose (ob/ob mice; clamp study): increased | hepatic glucose production (ob/ob mice; clamp study): reduction | atherosclerotic plaques formation (ApoE KO mice): decrease
